pIC50: −log10 of the molar value.
Biological target: T1, Human PDE7B (hPDE7B) (Homo sapiens, UniProt Q9NP56)
T1 construct: made in house; host or cells: COS-7 cells
Experiment: Measurement of PDE7 inhibitory activity (Experimental Example 1; residual cAMP, LANCE Ultra cAMP TR-FRET)
Assay type: biochemical
Settings: for pIC50: cAMP 3 nmol/L, room temperature 60 minutes; for inhibition at 1 µM: compound at 1 μmol/L
Description: Human PDE7B (hPDE7B) was isolated from COS-7 cells transfected with plasmids encoding hPDE7B according to the method described in a reference, Biochemical and Biophysical Research Communication, 271, p. 575-583 (2000). The resulting enzyme solution was used in the PDE assay.
PDE7 inhibitory assay was carried out by reacting the mixture of a compound, hPDE7B, and cAMP, and measuring the residual cAMP by a detection method using LANCE (registered trademark) Ultra cAMP Detection Kit (ParkinElmer). The compound was dissolved in DMSO, and diluted so that the concentration would become 50 times of the final concentration. The hPDE7B and cAMP were diluted with an assay buffer (50 mmol/L Tris-HCl, 1 mmol/L MgCl2, 0.1% BSA, 0.5 mmol/L DTT, pH7.5) so that the hPDE7B would have an appropriate enzyme activity and the concentration of cAMP would become 6 nmol/L. To a 96 well plate were added the compound (2 μL) (DMSO final concentration: 2%), hPDE7B (48 μL), and cAMP (50 μL) (concentration at the reaction: 3 nmol/L), and the resulting mixture was reacted at room temperature for 60 minutes. The reaction solution (20 μL) was subjected to a TR-FRET method according to the protocol specified by the kit to measure the concentration of the residual cAMP. In the assay, to a tracer solution specified by the kit was added 0.5 mmol/L of 3-isobutyl-1-methylxanthine (IBMX, nonselective PDE inhibitor) in order to stop the PDE enzyme reaction after the completion of reaction until the measurement.
The reaction without a compound was defined as “0% inhibition”, the reaction without hPDE7B was defined as “100% inhibition”, and the inhibition rate of the compound was calculated by the following equation.
Inhibition rate of compound (%)={(Residual cAMP concentration at the addition of compound−Residual cAMP concentration in 0% inhibition)/(Residual cAMP concentration in 100% inhibition−Residual cAMP concentration in 0% inhibition)}×100

T1 sequence (Q9NP56 whole entry): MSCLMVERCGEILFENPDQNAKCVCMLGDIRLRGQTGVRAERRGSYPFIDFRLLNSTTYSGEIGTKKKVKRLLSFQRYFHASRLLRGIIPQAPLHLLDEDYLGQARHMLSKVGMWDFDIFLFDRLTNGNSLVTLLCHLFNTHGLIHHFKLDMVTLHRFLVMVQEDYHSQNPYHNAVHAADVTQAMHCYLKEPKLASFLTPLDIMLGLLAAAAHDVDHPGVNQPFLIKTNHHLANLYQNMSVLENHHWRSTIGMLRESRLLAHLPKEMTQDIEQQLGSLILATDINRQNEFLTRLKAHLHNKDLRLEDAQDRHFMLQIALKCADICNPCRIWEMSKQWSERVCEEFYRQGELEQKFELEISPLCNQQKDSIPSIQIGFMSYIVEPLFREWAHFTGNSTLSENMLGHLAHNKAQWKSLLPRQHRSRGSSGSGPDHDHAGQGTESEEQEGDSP

SMILES | pIC50 | inhibition at 1 µM
CO[C@H]1CCCC[C@H]1n1nnc2c(N)ncnc21 (racemic) [Example 111, 3-[cis-2-methoxycyclohexyl]-3H-[1,2,3]triazolo[4,5-d]pyrimidin-7-amine] | 6.49 | 
CN1CCCCC1c1nnc2c(N)nccn12 (racemic) [Example 249, 3-(1-methylpiperidin-2-yl)-[1,2,4]triazolo[4,3-a]pyrazin-8-amine] | 6.13 | 
COC(=O)N1CCCCC1c1nnc2c(N)nccn12 (racemic) [Example 251, methyl 2-(8-amino-[1,2,4]triazolo[4,3-a]pyrazin-3-yl)-piperidine-1-carboxylate] | 6.21 | 
Nc1ncnc2c1nnn2[C@H]1CCC[C@H](C(F)(F)F)C1 (relative stereo) [Example 86, 3-[trans-3-(trifluoromethyl)cyclohexyl]-3H-[1,2,3]triazolo[4,5-d]pyrimidin-7-amine] | 6.44 | 
Nc1nccn2c([C@@H]3[C@H]4C=CC[C@H]43)nnc12 (relative stereo) [Example 163, 3-[(1S*,5R*,6S*)-bicyclo[3.1.0]hex-2-en-6-yl][1,2,4]triazolo[4,3-a]pyrazin-8-amine] | 6.66 | 
CC1CCCN(c2nnc3c(N)nccn23)C1C (single isomer, unassigned) [Example 56, 3-(2,3-dimethylpiperidin-1-yl) [1,2,4]triazolo[4,3-a]pyrazin-8-amine] | 6.72 | 
Nc1ncnc2c1nnn2C1CCCCC1(F)F (single isomer, unassigned) [Example 114, 3-(2,2-difluorocyclohexyl)-3H-[1,2,3]triazolo[4,5-d]pyrimidin-7-amine] | 6.72 | 
CC1CCC(C(F)(F)F)CC1c1nnc2c(N)nccn12 (single isomer, unassigned) [Example 173, 3-[2-methyl-5-(trifluoromethyl)cyclohexyl][1,2,4]triazolo[4,3-a]pyrazin-8-amine] | < 6.00 | 3%
CC1CCC(F)(F)CC1c1nnc2c(N)nccn12 (single isomer, unassigned) [Example 176, 3-(cis-5,5-difluoro-2-methylcyclohexyl) [1,2,4]triazolo[4,3-a]pyrazin-8-amine] | < 6.00 | 28%
CC1(C)CC(c2nnc3c(N)nccn23)CC(F)(F)C1 (single isomer, unassigned) [Example 178, 3-(3,3-difluoro-5,5-dimethylcyclohexyl) [1,2,4]triazolo[4,3-a]pyrazin-8-amine] | < 6.00 | 33%
CC1CCCCC1n1nnc2c(N)ncnc21 (single isomer, unassigned) [Example 190, 3-(cis-2-methylcyclohexyl)-3H-[1,2,3]triazolo[4,5-d]pyrimidin-7-amine] | 6.66 | 
CC1CCCCC1n1nnc2c(N)ncnc21 (single isomer, unassigned) [Example 193, 3-(trans-2-methylcyclohexyl)-3H-[1,2,3]triazolo[4,5-d]pyrimidin-7-amine] | 6.37 | 
CC1CCCC(n2nnc3c(N)ncnc32)C1 (single isomer, unassigned) [Example 197, 3-(cis-3-methylcyclohexyl)-3H-[1,2,3]triazolo[4,5-d]pyrimidin-7-amine] | 6.47 | 
Nc1ncnc2c1nnn2C1CCCC(C(F)F)C1 (single isomer, unassigned) [Example 201] | < 6.00 | 20%
Nc1ncnc2c1nnn2C1CCCC(C(F)(F)F)C1 (single isomer, unassigned) [Example 203, 3-[cis-3-(trifluoromethyl)cyclohexyl]-3H-[1,2,3]triazolo[4,5-d]pyrimidin-7-amine] | < 6.00 | 27%
CC1(C)CCCC(c2nnc3c(N)nccn23)C1 (single isomer, unassigned) [Example 206, 3-(3,3-dimethylcyclohexyl) [1,2,4]triazolo[4,3-a]pyrazin-8-amine] | < 6.00 | 44%
Nc1nccn2c(C3CCCC(C(F)(F)F)C3)nnc12 (single isomer, unassigned) [Example 211, 3-[cis-3-(trifluoromethyl)cyclohexyl][1,2,4]triazolo[4,3-a]pyrazin-8-amine] | < 6.00 | 20%
CC1CC(c2nnc3c(N)nccn23)CC(F)(F)C1 (single isomer, unassigned) [Example 215] | 6.28 | 
CCC1CCCCN1c1nnc2c(N)nccn12 (single isomer, unassigned) [Example 223, 3-(2-ethylpiperidin-1-yl) [1,2,4]triazolo[4,3-a]pyrazin-8-amine] | 6.72 | 
Nc1nccn2c(N3CCCC(C(F)(F)F)C3)nnc12 (single isomer, unassigned) [Example 225] | 6.27 | 

Now those with a higher pIC50, led by results:

pIC50 | inhibition at 1 µM | SMILES
7.52 |  | Nc1ncnc2c1nnn2C1CCCCC1(F)F (racemic) [Example 113, 3-(2,2-difluorocyclohexyl)-3H-[1,2,3]triazolo[4,5-d]pyrimidin-7-amine]
7.30 |  | C[C@H]1CCC[C@H](c2nnc3c(N)nccn23)C1 (racemic) [Example 143, 3-(trans-3-methylcyclohexyl) [1,2,4]triazolo[4,3-a]pyrazin-8-amine]
8.00 |  | CC1(C)CCCC(c2nnc3c(N)nccn23)C1 (racemic) [Example 144, 3-(3,3-dimethylcyclohexyl) [1,2,4]triazolo[4,3-a]pyrazin-8-amine]
7.52 |  | Nc1nccn2c(C3CCCC4(CC4)C3)nnc12 (racemic) [Example 145, 3-(spiro[2,5]oct-5-yl) [1,2,4]triazolo[4,3-a]pyrazin-8-amine]
7.40 |  | Nc1nccn2c(C3CCCC(C(F)(F)F)C3)nnc12 (racemic) [Example 146, 3-[cis-3-(trifluoromethyl)cyclohexyl][1,2,4]triazolo[4,3-a]pyrazin-8-amine]
8.00 |  | CC1CCC(C(F)(F)F)CC1c1nnc2c(N)nccn12 (racemic) [Example 151, 3-[2-methyl-5-(trifluoromethyl)cyclohexyl][1,2,4]triazolo[4,3-a]pyrazin-8-amine]
> 8.00 |  | CC1CCC(F)(F)CC1c1nnc2c(N)nccn12 (racemic) [Example 152, 3-(cis-5,5-difluoro-2-methylcyclohexyl) [1,2,4]triazolo[4,3-a]pyrazin-8-amine]
7.05 |  | CC1CC(c2nnc3c(N)nccn23)CC(F)(F)C1 (racemic) [Example 155, 3-(trans-3,3-difluoro-5-methylcyclohexyl[1,2,4]triazolo[4,3-a]pyrazin-8-amine]
7.52 |  | CC1(C)CC(c2nnc3c(N)nccn23)CC(F)(F)C1 (racemic) [Example 156, 3-(3,3-difluoro-5,5-dimethylcyclohexyl) [1,2,4]triazolo[4,3-a]pyrazin-8-amine]
6.74 |  | Nc1nccn2c(C3CCCCN3c3ncccn3)nnc12 (racemic) [Example 250, 3-(1-(pyrimidin-2-yl)piperidin-2-yl)-[1,2,4]triazolo[4,3-a]pyrazin-8-amine]
8.00 |  | CC1CCCCC1c1nnc2c(N)ncnn12 (single isomer, unassigned) [Example 69, 3-(cis-2-methylcyclohexyl) [1,2,4]triazolo[3,4-f][1,2,4]triazin-8-amine]
8.40 |  | CC1CCCC(c2nnc3c(N)ncnn23)C1 (single isomer, unassigned) [Example 71, 3-(cis-3-methylcyclohexyl) [1,2,4]triazolo[3,4-f][1,2,4]triazin-8-amine]
> 8.00 |  | Nc1ncnn2c(C3CCCC(C(F)(F)F)C3)nnc12 (single isomer, unassigned) [Example 74, 3-[cis-3-(trifluoromethyl)cyclohexyl][1,2,4]triazolo[3,4-f][1,2,4]triazin-8-amine]
7.15 |  | CC1CCCC(n2nnc3c(N)ncnc32)C1 (single isomer, unassigned) [Example 198, 3-(trans-3-methylcyclohexyl)-3H-[1,2,3]triazolo[4,5-d]pyrimidin-7-amine]
6.89 |  | Nc1nccn2c(C3CCCC4(CC4)C3)nnc12 (single isomer, unassigned) [Example 209, 3-(spiro[2,5]oct-5-yl) [1,2,4]triazolo[4,3-a]pyrazin-8-amine]
7.00 |  | CC1CC(c2nnc3c(N)nccn23)CC(F)(F)C1 (single isomer, unassigned) [Example 217, 3-(trans-3,3-difluoro-5-methylcyclohexyl[1,2,4]triazolo[4,3-a]pyrazin-8-amine]
6.96 |  | Nc1nccn2c(C3CCC4CC4C3)nnc12 (single isomer, unassigned) [Example 220, 3-(bicyclo[4.1.0]hept-3-yl) [1,2,4]triazolo[4,3-a]pyrazin-8-amine]
6.77 |  | Nc1nccn2c(N3CCCC(C(F)(F)F)C3)nnc12 (single isomer, unassigned) [Example 224]

Source: patent publication US20190185479A1, “BICYCLIC NITROGENATED HETEROCYCLIC COMPOUND” (MITSUBISHI TANABE PHARMA CORPORATION, priority 2016, published 2019)
